This is an account of results in patent US20230226230A1, “THIOPURINE-BASED COMPOUND, COMPOSITION, METHOD OF PREPARATION AND APPLICATIONS” (SEECURE TAIWAN CO., LTD., priority 2021, published 2023).

Structures are written as SMILES. Entries after “also recorded” stand apart in the source; their conditions may differ.

The subject of data set [1] is various human lymphoma cells (mantle cell lines). The data set can be described thus: In vitro MTT cytotoxicity assay, human lymphoma cells. The format is cell-based. The source says:
(§1) Effect of Compound SC-06-K analogues were selected to test their feasibility against representative mantle cell lines and diffuse large B-cell lymphoma (DLBCL) cell lines using cell viability assays.
A general note: Formazan colour is commonly taken as a measure of viable cells.

Data set [2] relates to human diffuse large B-cell lymphoma cells. The data set can be described thus: In vitro MTT cytotoxicity assay, DLBCL cells. The format is cell-based. The settings on record: various human diffuse large B-cell lymphoma cells.
From the text: as §1

The test system of data set [3] is MDA-MB-231 tumors. The data set can be described thus: Imaging of nude mice bearing breast tumors, MDA-MB-231 tumor. The note with it: MDA-MB-231, at 0.5 hrs.
Data set [4] has as its system MCF-7 tumors. The data set can be described thus: Imaging of nude mice bearing breast tumors, MCF-7 tumor. The settings on record: MCF-7, at 0.5 hrs.

For the molecule `Cn1cnc([N+](=O)[O-])c1Sc1ncnc2c1ncn2CC(O)CN1CCNCCNCCNCC1` (stereo not shown) [SC-06-K-1, Cyclen-Hydroxypropyl-Azathioprine Conjugate], the MTT cytotoxicity result in data set [1] is “inhibited cancer cells in dose-dependent manners; also recorded: inhibited cancer cells in a dose-dependent manner”; in data set [2] it was “inhibited various human diffuse large B-cell lymphoma cells in a dose-dependent manner; also recorded: inhibited cancer cells in a dose-dependent manner”.
Turning to `OC[C@H]1OC(O)[C@H]([18F])[C@@H](O)[C@@H]1O` (stereo partly shown) [^18F-FDG, 2′-fluorodeoxyglucose], the “Tumor/muscle count density ratios” value came out at 0.25 in data set [3] and 0.28 in data set [4].
